Source: patent US20240115572A1, “METHODS FOR TREATING GLIOBLASTOMAS WITH SEPIAPTERIN” (priority 2021, published 2024)

Experiments:
[1] = system: Orthotopic GL261 tumors; assay: Survival of mice with orthotopic GL261 tumors, temozolomide with or without sepiapterin; type: in vivo, mouse; settings: 10 mg/kg SP orally from day 7 until end of study + 60 mg/kg TMZ for 5 days
Experimental: Orthotopic GL261 tumors were established on Day 0. Starting on Day 7 mice were treated with 60 mg/kg temozolomide (TMZ) for 5 days+/−10 mg/kg SP given orally from day 7 until the end of the study. […] Future animal studies will combine with fractionated radiotherapy.

[2] = system: Orthotopic glioblastoma tumors, nude (U87) mouse model; assay: Survival of nude mice with orthotopic U87 glioblastoma tumors, sepiapterin plus radiation; type: in vivo
Experimental: Orthotopic glioblastoma tumors were established in nude (U87) and syngeneic (GL261) mouse models on Day 0 (N=13/group). Starting on Day 6 in the U87 mouse model, sepiapterin (SP) was orally administered for either 6 days (10 mg/kg sepiapterin) or daily (1 mg/kg sepiapterin) until end of experiment (60 days). Starting on Day 6 in the GL261 mouse model, SP was orally administered daily (10 mg/kg) until the end of experiment (60 days). Radiation (IR) (5 fxs of 2 Gy) with 3D treatment planning and delivery was started on Day 13, ending on Day 17.

[3] = system: adult female C57BL/6J mice; assay: Novel object recognition (NOR) test after brain irradiation; type: in vivo, mouse
Source text: The novel object recognition test is a behavioral test in which a mouse is allowed to explore two similar objects during the first (training) session, and then after a certain length of time, one of the two training objects is replaced by a new object during a later (test) session. Because mice have an innate preference for novelty, if the mouse recognizes the familiar object, it will spend most of its time at the novel object. The amount of time taken to explore the new object provides a measure of recognition memory. 24 adult female C57BL/6J mice were treated as follows: (1) 8 mice were irradiated (IR) with 10 Gy total dose, divided into three fractions with a “rest” day in between fractions, covering about a 1 mm square over the center of the head; (2) 8 mice were similarly irradiated, and also treated with 10 mg/kg/day sepiapterin (SP), administered as oral gavage, starting on day 1 of IR to 6 days beyond last radiation fraction (i.e. 11 days total); (3) 8 mice were untreated naïve. 1 month following treatment, mice were tested in the novel object recognition (NOR) task with an hour inter-trial interval (ITI) to assess hippocampal mediated memory (i.e. the test occurred one hour after training). In both training and test phases, time investigating objects was measured for 5 minutes. Two independent observers were used to evaluate. The Discrimination Index=(novel−familiar)/(novel+familiar).

## C[C@H](O)C(=O)C1=Nc2c(nc(N)[nH]c2=O)NC1 [sepiapterin, (S)-2-amino-6-(2-hydroxypropanoyl)-7,8-dihydropteridin-4(3H)-one]
[1]
  Survival vs TMZ alone: improved survival
[2]; 1 mg/kg oral continuously (daily from Day 6 to day 60) + IR, vs control
  Survival vs control group: significantly different
[2]; 1 mg/kg oral continuously + IR
  Survival vs all other groups (Control, IR alone, and 10 mg/kg for 6d): significantly different from all other groups
[2]; 10 mg/kg oral for 6d from Day 6 + IR (5 fxs of 2 Gy, Day 13-17), vs control (no IR or SP)
  Survival vs control group: significantly different
[2]; 10 mg/kg oral for 6d from Day 6 + IR, vs IR alone
  Survival vs IR alone group: did not achieve statistical significance
[3]; 10 Gy IR in three fractions + 10 mg/kg/day oral gavage for 11 days, NOR 1 month after treatment, 1 h ITI
  Discrimination Index compared with irradiated-only group: increased
[3]; IR 10 Gy + 10 mg/kg/day sepiapterin, N=8, 1 month after treatment, (novel−familiar)/(novel+familiar)
  NOR Discrimination Index, Mean: 0.262
[3]; Tukey test, P 0.331, P < 0.050: No
  Diff of Means of Discrimination Index, IR + drug vs. IR: 0.135
[3]; Tukey test, P 0.475, P < 0.050: No
  Diff of Means of Discrimination Index, Naïve vs. IR + drug: 0.110
